Test results from article PMC10272112 (Nature Communications, 2023).
Several values for one entry are separate records, joined by “and”; a condition that tells them apart may be missing. Identical values can stand only once.

Key:
HeLa S3 cells = experiment: Global acetyl-lysine detection by Western blot; settings: for relative lysine acetylation vs DMSO: HeLa S3, 1 mM, 16 h, replicates A/B
Protocol: HeLa S3 was grown in DMEM medium (PAN Biotech) supplemented with 10% FBS (PAN Biotech) and treated with drugs (final concentration of 0.1% DMSO) for indicated periods. […] The protein amount of cell lysates was determined by Bradford assay. […] Proteins were separated by SDS-PAGE and electro-transferred onto PVDF membranes. […] Acquisition and quantification of the band fluorescence intensities were carried out with the Odyssey (Licor) imaging system and corresponding software (v 3.0.29). Intensities of proteins were normalized to input beta-Actin and further normalized to the control treatments to calculate the relative acetylation change.

HDAC3 = target: T1, HDAC3 (Homo sapiens, UniProt O15379); experiment: Chemoproteomic competition pulldown assay; format: binding; settings: iL, MV4-11 lysate
T1 construct: endogenous in cells; host or cells: MV4-11 lysate
T1 sequence (O15379 whole entry): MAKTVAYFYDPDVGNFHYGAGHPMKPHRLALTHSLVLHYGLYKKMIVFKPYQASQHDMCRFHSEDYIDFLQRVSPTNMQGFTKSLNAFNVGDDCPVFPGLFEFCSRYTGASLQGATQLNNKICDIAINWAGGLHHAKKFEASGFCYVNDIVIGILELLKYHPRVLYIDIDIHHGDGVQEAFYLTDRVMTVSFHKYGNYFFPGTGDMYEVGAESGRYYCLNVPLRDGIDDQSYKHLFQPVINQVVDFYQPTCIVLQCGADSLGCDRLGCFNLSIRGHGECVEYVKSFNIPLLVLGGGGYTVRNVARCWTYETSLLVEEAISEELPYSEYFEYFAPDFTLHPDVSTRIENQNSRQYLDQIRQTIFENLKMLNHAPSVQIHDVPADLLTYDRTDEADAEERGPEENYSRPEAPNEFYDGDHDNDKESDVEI
T1 sequence (O75376 whole entry partner): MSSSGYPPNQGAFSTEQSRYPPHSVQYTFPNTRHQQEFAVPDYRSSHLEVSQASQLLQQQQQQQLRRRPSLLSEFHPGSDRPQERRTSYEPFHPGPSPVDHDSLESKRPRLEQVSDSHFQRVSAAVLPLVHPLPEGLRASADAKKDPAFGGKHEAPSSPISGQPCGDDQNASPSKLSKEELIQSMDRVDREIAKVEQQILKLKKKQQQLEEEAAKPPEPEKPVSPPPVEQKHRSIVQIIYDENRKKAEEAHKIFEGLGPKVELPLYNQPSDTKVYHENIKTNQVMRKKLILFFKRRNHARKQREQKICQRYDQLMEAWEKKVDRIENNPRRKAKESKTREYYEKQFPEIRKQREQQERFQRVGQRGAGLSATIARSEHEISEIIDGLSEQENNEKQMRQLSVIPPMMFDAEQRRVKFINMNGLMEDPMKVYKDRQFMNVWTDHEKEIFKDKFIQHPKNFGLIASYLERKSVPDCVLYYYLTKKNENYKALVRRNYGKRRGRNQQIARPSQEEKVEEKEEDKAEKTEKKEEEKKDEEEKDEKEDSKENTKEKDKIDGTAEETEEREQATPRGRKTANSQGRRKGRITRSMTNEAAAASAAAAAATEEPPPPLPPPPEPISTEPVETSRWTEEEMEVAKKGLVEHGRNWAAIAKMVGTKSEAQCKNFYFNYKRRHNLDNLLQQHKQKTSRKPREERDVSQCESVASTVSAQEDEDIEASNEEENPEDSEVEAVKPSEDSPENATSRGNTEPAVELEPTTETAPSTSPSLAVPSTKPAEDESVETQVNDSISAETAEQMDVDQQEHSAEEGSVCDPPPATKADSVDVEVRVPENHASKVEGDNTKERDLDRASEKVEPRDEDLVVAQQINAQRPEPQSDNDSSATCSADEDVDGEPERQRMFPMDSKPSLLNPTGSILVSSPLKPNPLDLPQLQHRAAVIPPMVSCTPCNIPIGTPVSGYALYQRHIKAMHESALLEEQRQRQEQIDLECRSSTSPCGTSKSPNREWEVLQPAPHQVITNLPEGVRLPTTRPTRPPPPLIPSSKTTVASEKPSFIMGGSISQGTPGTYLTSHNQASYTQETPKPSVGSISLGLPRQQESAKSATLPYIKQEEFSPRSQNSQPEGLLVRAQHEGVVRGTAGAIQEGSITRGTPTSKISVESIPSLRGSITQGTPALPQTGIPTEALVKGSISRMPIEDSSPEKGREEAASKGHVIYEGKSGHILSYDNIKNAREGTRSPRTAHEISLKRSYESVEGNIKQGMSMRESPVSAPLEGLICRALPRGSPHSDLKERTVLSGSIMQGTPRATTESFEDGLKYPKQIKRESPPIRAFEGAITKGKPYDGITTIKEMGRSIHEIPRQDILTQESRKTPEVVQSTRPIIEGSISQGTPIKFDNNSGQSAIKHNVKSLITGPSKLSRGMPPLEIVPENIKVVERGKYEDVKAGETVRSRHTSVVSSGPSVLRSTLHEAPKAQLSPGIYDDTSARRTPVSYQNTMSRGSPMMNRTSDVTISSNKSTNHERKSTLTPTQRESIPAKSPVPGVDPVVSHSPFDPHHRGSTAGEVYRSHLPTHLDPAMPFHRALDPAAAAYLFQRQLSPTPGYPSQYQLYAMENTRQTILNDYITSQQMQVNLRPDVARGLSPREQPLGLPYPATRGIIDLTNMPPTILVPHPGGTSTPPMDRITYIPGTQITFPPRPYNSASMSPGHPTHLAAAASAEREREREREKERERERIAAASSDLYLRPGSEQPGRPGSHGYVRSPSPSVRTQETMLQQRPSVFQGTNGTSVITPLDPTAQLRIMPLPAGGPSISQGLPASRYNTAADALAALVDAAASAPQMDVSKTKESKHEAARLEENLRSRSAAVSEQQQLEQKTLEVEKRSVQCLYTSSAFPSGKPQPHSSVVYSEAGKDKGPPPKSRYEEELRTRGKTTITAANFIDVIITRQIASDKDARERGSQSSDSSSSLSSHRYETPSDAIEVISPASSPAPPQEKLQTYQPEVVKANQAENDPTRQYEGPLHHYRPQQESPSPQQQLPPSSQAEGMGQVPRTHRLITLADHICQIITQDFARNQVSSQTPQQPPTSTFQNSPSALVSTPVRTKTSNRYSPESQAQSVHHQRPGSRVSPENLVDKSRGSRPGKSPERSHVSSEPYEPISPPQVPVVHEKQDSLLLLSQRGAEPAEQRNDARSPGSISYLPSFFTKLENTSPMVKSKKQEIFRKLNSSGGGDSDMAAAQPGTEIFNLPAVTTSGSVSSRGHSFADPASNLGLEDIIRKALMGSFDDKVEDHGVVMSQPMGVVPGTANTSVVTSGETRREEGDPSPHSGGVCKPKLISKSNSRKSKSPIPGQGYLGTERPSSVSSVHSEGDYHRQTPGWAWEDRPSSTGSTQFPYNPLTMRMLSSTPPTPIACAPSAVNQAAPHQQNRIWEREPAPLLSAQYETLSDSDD
Protocol: To identify proteins directly bound by lipoic acid, we employed a chemoproteomic competition assay. Briefly, (R/S)-LA was immobilized on sepharose beads via an amidation reaction to form an affinity matrix (abbreviated as iL; Fig. 1a). This affinity matrix can be incubated with cell lysate to pull down potential LA or LM target proteins and identify these targets via bottom-up proteomics. In a competition assay, free LA or LM were incubated with lysate at different concentrations before pulling down and quantifying target proteins. […] (Fig. 1b, see “Methods” for details). […] The lysate buffer used in this assay contains 1 mM DTT to mimic the intracellular reductive milieu and to reduce lipoic acid and LM. […] Additional competition assays performed in lung adenocarcinoma cell A549 lysate also identified HDAC1, HDAC2, and HDAC6 as targets (Supplementary Fig. 1b). Amongst the three cell lines tested, HDACs were the only confidently identified targets across the 1500–3000 proteins quantified in these assays. […] We validated the results by analogous pulldown competition assays using two other affinity matrices prepared via the immobilization of either the HDAC inhibitor Quisinostat (iQ) and an analog of the class IIa HDAC inhibitor Bürli’s 31[14] (iC)[12]. We have previously shown that these affinity matrices specifically bind to the active sites of HDACs and have used them for HDACi selectivity profiling. Indeed, binding of (R/S)-LA and (R/S)-LM to HDAC1, HDAC2, HDAC3, HDAC6, and, to a lesser extent, HDAC8 was confirmed in these assays (Supplementary Fig. 1c, d). No binding to class IIa HDACs or the recently discovered common HDAC inhibitor off-target MBLAC2 was observed (Supplementary Fig. 1e)[12]. […] This observation might reflect electrostatic repulsion between the HDAC10 active site gate-keeper glutamic acid residues[15],[16] and the terminal carboxylic acid of LA.
To assess the degree of protein depletion from lysates by the affinity matrix, a second pulldown (PDPD) with fresh beads was performed using the unbound protein fraction from the vehicle control flow through. The beads were washed (1 × 1 mL of lysis buffer without inhibitors and only 0.4% Igepal, 2 × 2 mL of lysis buffer without inhibitors and only 0.2% Igepal), and captured proteins were denatured with 8 M urea buffer, alkylated with 55 mM chloroacetamide and digested with Trypsin according to standard procedures. The resulting peptides were desalted on a C18 filter plate (Sep-Pak® tC18 µElution Plate, Waters), vacuum dried, and stored at −20 °C until LC–MSMS measurement.
For the competition assays, relative binding was calculated based on the protein intensity ratio to the DMSO control for every single inhibitor concentration. EC50 values were derived from a four-parameter log-logistic regression with variable slope (constrain: bottom > 0). The obtained EC50 values were multiplied with a protein-dependent correction factor (cf), resulting in the apparent Kd value (Kd^app). The correction factor is determined by calculating the ratio of the protein intensity of two consecutive pulldowns of the vehicle control sample[13]. Targets of the inhibitors were annotated manually according to published procedures[12],[46],[47]. […] Additionally, the number of unique peptides and MSMS counts per condition were taken into account. Positive target binding across several independent experiments performed with different cell lysates further substantiated our confidence for a true positive drug-target binding event.

HDAC10 = target: T2, HDAC10 (Homo sapiens, UniProt Q969S8); experiment: NanoBRET intracellular target engagement assay; format: cell-based; settings: HeLa cells
T2 construct: host or cells: HeLa mono-clones, stably expressing
T2 sequence (Q969S8 1-669): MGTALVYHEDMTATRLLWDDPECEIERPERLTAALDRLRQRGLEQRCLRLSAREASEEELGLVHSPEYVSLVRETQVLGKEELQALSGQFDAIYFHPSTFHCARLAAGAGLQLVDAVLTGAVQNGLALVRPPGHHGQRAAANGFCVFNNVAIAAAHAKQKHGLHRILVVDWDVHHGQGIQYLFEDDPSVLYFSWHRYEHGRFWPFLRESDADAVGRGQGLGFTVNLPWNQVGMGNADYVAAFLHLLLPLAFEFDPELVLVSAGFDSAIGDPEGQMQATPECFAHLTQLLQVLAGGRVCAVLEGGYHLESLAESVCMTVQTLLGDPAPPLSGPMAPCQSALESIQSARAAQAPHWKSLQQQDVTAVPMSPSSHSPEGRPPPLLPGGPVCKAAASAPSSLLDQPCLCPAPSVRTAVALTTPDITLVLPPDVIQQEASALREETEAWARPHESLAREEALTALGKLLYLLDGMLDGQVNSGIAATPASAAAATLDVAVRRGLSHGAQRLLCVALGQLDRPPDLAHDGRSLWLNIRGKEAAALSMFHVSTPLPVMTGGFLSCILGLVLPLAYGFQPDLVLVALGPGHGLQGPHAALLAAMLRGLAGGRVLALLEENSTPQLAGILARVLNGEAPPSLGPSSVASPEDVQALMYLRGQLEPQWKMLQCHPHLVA
Protocol: For the production of transfected HeLa mono-clones stably expressing HDAC-nanoBRET fusion proteins of HDAC10 and HDAC6-catalytic domain 2 (HDAC6CD2), plasmids expressing a fusion of HDAC10 with nanoluciferase were obtained from Promega (N2170). HeLa cells (0.75 × 10^6) were seeded in a 6 cm dish and were transfected with a mix of 10 μg plasmid and 3 μL Fugene in 200 μL OptiMEM after 24 h. The intracellular target engagement assay on HDAC10 and HDAC6CD2 was performed using the NanoBRET™ Target Engagement Intracellular HDAC Assay (Promega N2081 and N2090) as described by the kit manufacturer in a 96-well plate (Corning 3600) format with 2 × 10^4 cells per well and a tracer concentration of 0.3 μM. Inhibitors were dosed with a D300e Digital Dispenser (Tecan). DMSO concentrations were normalized to 0.5% for all wells. After dosing, assay plates were shaken at 800 rpm and incubated at 37 °C for 2 h followed by measurement of 450 nm and 650 nm luminescence (80 nm bandwidth) at room temperature with a CLARIOstar (BMG Labtech) plate reader 2 min after NanoLuc substrate addition.

A549 cells = experiment: CellRox deep red assay for ROS quantification (with or without arsenite); format: cell-based; settings: sheet 4d
[1] = HeLa S3, time-dependent treatment, 5 mM

## O=C(O)CCCCC1CCSS1 (racemic) [(R/S)-LA, (R/S)-lipoic acid]
HeLa S3 cells; 10-12 kDa bands
  relative lysine acetylation vs DMSO: 5.9571 and 6.0208
HeLa S3 cells; 14-16 kDa bands
  relative lysine acetylation vs DMSO: 4.6853 and 4.9960
HeLa S3 cells; 21-23 kDa bands
  relative lysine acetylation vs DMSO: 2.3477 and 2.3498
HeLa S3 cells; 24-26 kDa bands
  relative lysine acetylation vs DMSO: 2.1045 and 2.1971
HeLa S3 cells; 49-51 kDa bands
  relative lysine acetylation vs DMSO: 6.4530 and 6.1942
HeLa S3 cells; 65-73 kDa bands
  relative lysine acetylation vs DMSO: 5.8639 and 5.7630
HeLa S3 cells; [1]
  time of peak acetylation: 3 to 8 h
  time to upregulation of acetylation on a broad range of proteins: ≤ 1 h

## NC(=O)CCCCC1CCSS1 (racemic) [(R/S)-LM, (R/S)-lipoamide]
HDAC3; log10 M -3.52288
  relative binding vs DMSO: 0.06787
HDAC3; log10 M -4
  relative binding vs DMSO: 0.1873
HDAC3; log10 M -4.52288
  relative binding vs DMSO: 0.229
HDAC3; log10 M -5
  relative binding vs DMSO: 0.6794
HDAC3; log10 M -5.52288
  relative binding vs DMSO: 1.111
HDAC3; log10 M -6
  relative binding vs DMSO: 0.7918
HDAC3; log10 M -6.52288
  relative binding vs DMSO: 1.34
HDAC3; log10 M -7
  relative binding vs DMSO: 0.7531
HDAC3; read-out: Kd app
  Kd: 13 µM
HDAC10
  intracellular binding to HDAC10: dose-dependent intracellular binding
A549 cells; R/S-LM +Ars
  ROS (CellRox), relative to DMSO -Ars., Mean: 1.413
  ROS (CellRox), relative to DMSO -Ars., replicate values: 1.506 and 1.194 and 1.54
A549 cells; R/S-LM -Ars
  ROS (CellRox), relative to DMSO -Ars., Mean: 1.131
  ROS (CellRox), relative to DMSO -Ars., replicate values: 1.077 and 0.9596 and 1.357
